# Test results from US20150031697A1, “METHOD FOR PREVENTING ULTRAVIOLET RADIATION-INDUCED CUTANEOUS DAMAGE AND DEVELOPMENT OF SQUAMOUS CELL CARCINOMAS” (WISCONSIN ALUMNI RESEARCH FOUNDATION, priority 2013, published 2015).
# Where two headings read alike, the source gives them in different places.
# What was measured:
# [1] = tested on: PKCε, Stat3, pStat3Tyr705, pStat3Ser727, Akt, pAktser473; assay: Epidermal protein expression levels after UVR (Western blot); format: in vivo, PKCε-overexpressing transgenic mice
# Experimental: PKCε-overexpressing transgenic mice (line 224) were exposed once to UVR (4 kJ/m2). […] Mice were sacrificed 24 hours post-UVR exposure. There were two mice per treatment point. Dorsal skin comprised excised, epidermal cell lysates prepared as described before (Aziz et al., 2007). […] PKCε-overexpressing transgenic mice (line 224) were exposed once to UVR (2 kJ/m2). […] Mice were sacrificed at 24 hours post-UVR exposure. There were three mice per treatment point. Dorsal skin comprised excised, epidermal cell lysates prepared as described before (Aziz et al., 2007). Pooled epidermal cell lysate was analyzed for PKCε expression level by western blot analysis (B). (C) Shown is the quantitation of the western blot (B).
# Mouse skin was excised and scraped to remove subcutaneous fat. The epidermis was scraped off on an ice-cold glass plate, homogenized in lysis buffer [50 mmol/L HEPES, 150 mmol/L NaCl, 10% glycerol, 1% Triton X-100, 1.5 mmol/L MgCl2, 10 μg/m aprotinin, 10 μg/m leupeptin, 1 mmol/L phenylmethylsulfonyl fluoride (PMSF), 200 μmol/L Na3VO4, 200 μmol/L NaF, and 1 mmol/L EGTA (final pH 7.5)]. The homogenate was centrifuged at 14,000 g for 30 min at 4° C. […] The Western blots were quantitated by densitometric analysis using Totallab® Nonlinear Dynamic Image analysis software (Nonlinear USA, Inc., Durham, N.C.). […]
# Hsp90 = settings: cited from earlier work
# UVR-induced SCC [2] = assay: UVR-induced development of SCC in SKH-1 hairless mice (tumor induction experiment); format: in vivo
# Experimental: (§1) The SKH-1 hairless mice (6-7 week old) were exposed to UVR. The UVR source was Kodacel-filtered FS-40 sun lamps (approximately 60% UVB and 40% UVA). Mice were exposed to UVR (1.8 kJ/m2) three times weekly (Monday, Wednesday and Friday). The mice in the vehicle group (n=18) received topical treatment of 200 μl vehicle (DMSO:acetone: 1:40 v/v) before and after each UVR exposures. […] Carcinomas were recorded grossly as downward-invading lesions, which were confirmed histologically. […] At the end of the experiment, mice were sacrificed. […] A part of the uninvolved dorsal skin was fixed for in 10% neutral-buffered formalin for histological examination. […] (D): A part of the uninvolved skin was also used to prepare total epidermal lysate to determine expression level of PKCε, Hsp90β, and Hsp70.
# (§2) The PKCε-overexpressing transgenic (TG) and wildtype FVB/N mice (6-7 week old) were exposed to UVR. Mice were exposed to UVR (1.8 kJ/m2) three times weekly (Monday, Wednesday and Friday). The mice in the vehicle group received topical treatment of 200 μl vehicle (DMSO:acetone: 1:40 v/v) before and after UVR each exposure. […] Carcinomas were recorded grossly as downward-invading lesions, which were confirmed histologically. […] There were 11 mice in each group.
# (§3) SKH1 hairless mice were purchased from Charles River Laboratories (Wilmington, Mass.). PKCε transgenic mice were generated as described previously (Reddig et al., 2000). The UVR source was Kodacel-filtered FS-40 sunlamps (approximately 60% UV-B and 40% UV-A). Mice were exposed to UVR from a bank of six Kodacel-filtered sunlamps. UVR dose was routinely measured using UVX-radiometer.
# (§4) 4. […] Initial tumor induction experiment was performed with SKH-1 hairless mice.
# Hsp90β-PKCε interaction = Hsp90β-PKCε interaction (Mus musculus, UniProt P11499); settings: 500 nmol topical before and after one UVR exposure, 24 hours post-UVR
# Experimental: PKCε-overexpressing transgenic mice (line 224) were exposed once to UVR (4 kJ/m2). […] Mice were sacrificed 24 hours post-UVR exposure. There were two mice per treatment point. Dorsal skin comprised excised, epidermal cell lysates prepared as described before (Aziz et al., 2007). Pooled epidermal cell lysate was analyzed for PKCε-Hsp90β interaction by immunoprecipitation/Western blot analyses (A).
# Epidermal lysates were prepared as for Western blot analysis. 100 μg of epidermal lysate was incubated with 10 μg of the indicated antibody. The total volume of the lysate/antibody mixture was adjusted to 1,000 μL with lysis buffer to allow for appropriate mixing and rotated at 4° C. overnight. Lysate/antibody mixture was then mixed with 50 μL of protein agarose A/G (sc-2003 Santa Cruz Biotechnology, Santa Cruz, Calif.) for 6 h. Lysate/antibody/protein A/G agarose mixture was then centrifuged at 8,000 g for 10 min to sediment the protein A/G agarose. Pellet was washed with 0.1% tween in PBS and then sedimented at 8,000 g for 10 min three times to wash any non-specific binding from the pellet. After three washes the immunoprecipite was then boiled for 5 min in 20 μL Protein Loading Buffer Blue (Cat # EC-886, National Diagnostics, Atlanta, Ga.). Immunoprecipitates were then treated as in Western Blot analysis above.
# [3] = cited from earlier work
# [4] = HPLC analysis of 17AAG in serum and mouse epidermis after topical application; format: in vivo, mice (SKH-1 hairless, FVB)
# Experimental: SKH hairless mice (6-7 weeks old) were exposed to UVR (1.8 kJ/m^2) three times weekly (Monday, Wednesday, and Friday). The mice in the vehicle group (n=3) received topical treatment of 200 μl vehicle (DMSO:acetone: 1:40 v/v) before and after UVR exposures. […] All mice were treated for 25 weeks and sacrificed at 1, 3, 6 and 24 hours following the last UVR exposure. (A) Blood samples were collected to analyze serum 17AAG by HPLC. […] Mice were sacrificed at 6 and 24 hours post-17AAG treatment. (B) Blood samples were collected for serum 17AAG analysis. (C) 17AAG level was also analyzed in the epidermal protein lysate. To prepare epidermal lysate, epidermis was scraped and homogenized in the lysis buffer. […] Each value is an average of duplicate samples. ND: Not detectable. Inset: Chemical structure of 17AAG.
# Dorsal areas of the mice (6-7 week old) were shaved and depilated one day before the treatment. […] Blood samples were collected to detect 17AAG in serum. To prepare epidermal lysate, epidermis was removed and homogenized with the lysis buffer. 17-AAG levels in the serum and mouse epidermis were analyzed by HPLC (Shin, et al., 2012).
# 1. Topically applied 17AAG is distributed both in epidermis and serum.
# UVR-induced hyperplasia [5] = assay: Effect of topically applied Hsp90 inhibitors on UVR-induced hyperplasia (Table 3); on Effect on Hyperplasia, Mice 1 or Slide 1, 24 Hr. post UVR: key: +++ (positive effect); −−− (negative effect); −− (less negative); on Effect on Hyperplasia, Mice 2 or Slide 2, 24 Hr. post UVR: key: +++ (positive effect); −−− (negative effect); −− (less negative); on Effect on Hyperplasia, Mice 2 or Slide 2, 48 Hr. post UVR: key: +++ (positive effect); −−− (negative effect); −− (less negative); format: in vivo, SKH1 mice; set-up: Effect on Hyperplasia, Mice 2 or Slide 2, 24 Hr. post UVR / Effect on Hyperplasia, Mice 2 or Slide 2, 48 Hr. post UVR / Effect on Hyperplasia, Mice 1 or Slide 1, 24 Hr. post UVR / Effect on Hyperplasia, Mice 1 or Slide 1, 48 Hr. post UVR: key: +++ (positive effect); −−− (negative effect); −− (less negative); settings: for Effect on Hyperplasia, Mice 1 or Slide 1, 24 Hr. post UVR / Effect on Hyperplasia, Mice 1 or Slide 1, 48 Hr. post UVR / Effect on Hyperplasia, Mice 2 or Slide 2, 24 Hr. post UVR / Effect on Hyperplasia, Mice 2 or Slide 2, 48 Hr. post UVR: SKH1 mice, topical; for Effect on Hyperplasia, Mice 1 or Slide 1, 24 Hr. post UVR: mouse 1, 24 Hr. post UVR; for Effect on Hyperplasia, Mice 1 or Slide 1, 48 Hr. post UVR: mouse 1, 48 Hr. post UVR; for Effect on Hyperplasia, Mice 2 or Slide 2, 24 Hr. post UVR: mouse 2, 24 Hr. post UVR; for Effect on Hyperplasia, Mice 2 or Slide 2, 48 Hr. post UVR: mouse 2, 48 Hr. post UVR
# UVR-induced SCC [6] = assay: UVR-induced development of SCC in PKCε overexpressing transgenic FVB/N mice and wild-type littermates; format: in vivo
# Experimental: as §2, §3
# PKCε, Hsp90β, Hsp70 = assay: Expression levels in uninvolved skin at end of SCC experiment; format: in vivo, SKH-1 hairless mice; settings: SKH hairless mice
# Experimental: as §1, §4
# [7] = tested on: MMP-2, MMP-9, Collagen IV, Hsp70; assay: Skin expression of MMPs, collagen IV, Hsp70 and PCNA after UVR (Western blot); format: in vivo; settings: SKH1 mice
# Experimental: Groups of SKH1 mice were exposed to UVR (2 kJ/m2) three times (Monday, Wednesday, Friday, and Monday) weekly for 6 and 12 weeks. […] Mice were sacrificed at 24 hours after the last UVR treatment. […] To determine morphological and biochemical alteration in skin, the two layers of skin (epidermis and dermis) were isolated separately for analysis of the indicated protein by the western blot analysis.
# Mouse skin was excised and scraped to remove subcutaneous fat. The epidermis was scraped off on an ice-cold glass plate, homogenized in lysis buffer [50 mmol/L HEPES, 150 mmol/L NaCl, 10% glycerol, 1% Triton X-100, 1.5 mmol/L MgCl2, 10 μg/m aprotinin, 10 μg/m leupeptin, 1 mmol/L phenylmethylsulfonyl fluoride (PMSF), 200 μmol/L Na3VO4, 200 μmol/L NaF, and 1 mmol/L EGTA (final pH 7.5)]. The homogenate was centrifuged at 14,000 g for 30 min at 4° C. Epidermal cell lysate proteins were fractionated on 10% Criterion™ pre-cast SDS-polyacrylamide gels (Bio-Rad Laboratories, Hercules, Calif.). The protein was transferred to 0.45 μm Hybond-P polyvinylidene difluoride (PVDF) transfer membrane (Amersham Life Sciences, Piscataway, N.J.). The membrane was then incubated with the indicated antibody followed by a horseradish peroxidase secondary antibody (Thermo Scientific), and the detection signal was developed with Amersham's enhanced chemiluminescence reagent and using FOTO/Analyst Luminary Work Station (Fotodyne Inc.). The Western blots were quantitated by densitometric analysis using Totallab® Nonlinear Dynamic Image analysis software (Nonlinear USA, Inc., Durham, N.C.).
# [8] = cited from earlier work; for bioavailability: literature
# UVR-induced hyperplasia [9] = assay: 17AAG effect on UVR-induced hyperplasia / epidermal thickness; format: in vivo; settings: SKH1 mice, 500 nmol topical after each UVR exposure, 24 hr and 48 hr after fourth UVR, p<0.01
# Experimental: Groups of SKH1 mice were exposed to UVR (2 kJ/m2) three times (Monday, Wednesday, Friday, and Monday) weekly for 6 and 12 weeks. […] Mice were sacrificed at 24 hours after the last UVR treatment. […] For histochemistry, skin specimens were fixed in 10% neutral buffered formalin for 24 hours and embedded in paraffin.
# In this experiment, groups of SKH1 hairless mice were exposed either four times to UVR (4 kJ/m^2, Monday, Wednesday, Friday, and Monday) or for 6 and 12 weeks (2 kJ/m^2, thrice weekly, Monday, Wednesday, Friday). […] The mice were sacrificed at 24 hr and 48 hr after the fourth UVR exposure. The, dorsal skin was removed and fixed in 10% formalin for the analyses of epidermal hyperplasia.
# [10] = clinical trials; cited from earlier work
# [11] = in vivo; cited from earlier work
# human Hsp90 = settings: cited from earlier work
# [12] = SKH-1 hairless mice, 17AAG applied post each UVR exposure only
# [13] = FVB mice, single topical application, 6 hr after treatment
# [14] = both mice, 24 hr and 48 hr post-UVR
# [15] = 500 nmol topical after each UVR, 6 and 12 weeks
# Chain of Hsp90β-PKCε interaction (P11499 2-724 limits assumed): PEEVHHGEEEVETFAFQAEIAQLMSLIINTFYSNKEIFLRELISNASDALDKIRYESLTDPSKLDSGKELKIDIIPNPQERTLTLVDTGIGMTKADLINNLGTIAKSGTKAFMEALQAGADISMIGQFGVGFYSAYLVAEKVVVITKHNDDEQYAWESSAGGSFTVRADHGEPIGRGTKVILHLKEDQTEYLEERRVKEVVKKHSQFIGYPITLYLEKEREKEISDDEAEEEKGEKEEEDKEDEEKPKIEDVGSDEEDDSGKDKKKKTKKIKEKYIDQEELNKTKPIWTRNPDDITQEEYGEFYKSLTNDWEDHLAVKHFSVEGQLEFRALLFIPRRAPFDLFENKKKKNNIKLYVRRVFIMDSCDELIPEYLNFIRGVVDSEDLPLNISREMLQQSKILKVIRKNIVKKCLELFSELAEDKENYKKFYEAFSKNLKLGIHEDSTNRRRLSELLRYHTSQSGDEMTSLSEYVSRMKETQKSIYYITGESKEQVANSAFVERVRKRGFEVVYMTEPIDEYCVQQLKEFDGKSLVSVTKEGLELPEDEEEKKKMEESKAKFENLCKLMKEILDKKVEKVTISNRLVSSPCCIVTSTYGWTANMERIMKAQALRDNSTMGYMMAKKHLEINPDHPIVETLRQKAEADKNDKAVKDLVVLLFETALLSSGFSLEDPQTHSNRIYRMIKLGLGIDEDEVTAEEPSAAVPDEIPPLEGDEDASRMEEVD
smiles,measurement,setting,value
"C=CCNC1=C2C[C@@H](C)C[C@H](OC)[C@H](O)[C@@H](C)/C=C(\C)[C@H](OC(N)=O)[C@@H](OC)/C=C\C=C(/C)C(=O)NC(=CC1=O)C2=O [17AAG, 17-allylamino-demethoxygeldanamycin]",PKCε expression level,"[1]; 500 nmol topical before and after one UVR exposure, 24 hours post-UVR (FIG. 3A input)",did not appreciably affect
same,"Stat3, pStat3Ser727, pStat3Tyr705 and pAktser473 expression levels","[1]; topical before and after one UVR exposure, 24 hours post-UVR",inhibited
same,higher affinity for Hsp90 derived from tumor cells compared to Hsp90 from normal cells,Hsp90,100 fold
same,SCC incidence,"UVR-induced SCC [2]; SKH hairless mice, 500 nmol topical before and after each UVR exposure",significantly (p=0.038) inhibited
same,change in SCC latency,"UVR-induced SCC [2]; SKH hairless mice, 500 nmol topical before and after each UVR exposure (1.8 kJ/m2, three times weekly)",17 weeks
same,increase in SCC latency,UVR-induced SCC [2]; [12],20 weeks
same,inhibition of SCC incidence,UVR-induced SCC [2]; [12],> 50%
same,UVR-induced hyperplasia in uninvolved dorsal skin,"UVR-induced SCC [2]; end of SCC experiment, SKH hairless mice (FIG. 5C)",inhibition
same,UVR-induced PKCε-Hsp90β interaction,Hsp90β-PKCε interaction,suppressed
same,"solubility in water or organic solvent, such as DMSO and ethanol, compared with Geldanamycin",[3],higher
same,half-life of topically applied 17AAG,"[4]; 500 nmol in DMSO:acetone 1:40 on skin, inferred from decline at 24 hours",short
same,epidermal 17AAG level,[4]; [13],detectable
same,serum 17AAG level,[4]; [13],detectable
same,serum and epidermal 17AAG levels,"[4]; SKH-1 and FVB mice, 24 hours post-17AAG treatment",lowest
same,time of maximum serum 17AAG level post topical application,"[4]; SKH-1 hairless mice, topical 500 nmol with three weekly UVR exposures for 25 weeks",1 h
same,"Effect on Hyperplasia, Mice 1 or Slide 1, 24 Hr. post UVR",UVR-induced hyperplasia [5],+++
same,"Effect on Hyperplasia, Mice 1 or Slide 1, 48 Hr. post UVR",UVR-induced hyperplasia [5],+++
same,"Effect on Hyperplasia, Mice 2 or Slide 2, 24 Hr. post UVR",UVR-induced hyperplasia [5],+++
same,"Effect on Hyperplasia, Mice 2 or Slide 2, 48 Hr. post UVR",UVR-induced hyperplasia [5],+++
same,effect on UVR-induced hyperplasia (Table 3),UVR-induced hyperplasia [5]; [14],positive effect
same,UVR-induced development of SCC,"UVR-induced SCC [6]; PKCε overexpressing transgenic FVB/N mice, topical 500 nmol before and after each UVR, p=0.036",significantly inhibited
same,UVR-induced development of SCC,"UVR-induced SCC [6]; wild-type and PKCε overexpressing transgenic FVB/N mice, topical, p<0.01",significantly (p<0.01) inhibited
same,UVR-induced development of SCC,"UVR-induced SCC [6]; wild-type littermates (FVB/N), topical 500 nmol before and after each UVR, p=0.018",significantly inhibited
same,Hsp70 level,"PKCε, Hsp90β, Hsp70",increase
same,Hsp90β and PKCε expression levels,"PKCε, Hsp90β, Hsp70",inhibition
same,"expression level of MMP-2, MMP-9, collagen IV",[7]; [15],decrease
same,expression of Hsp70,[7]; [15],increase
same,UVR-induced proliferative marker PCNA,[7]; topical,inhibited
same,Half-life,"[8]; administered intravenous or orally, literature reports",3 to 4 h
same,bioavailability,[8]; given intraperitoneally,excellent
same,bioavailability,[8]; given orally,modest
same,UVR-induced hyperplasia (epidermal thickness),UVR-induced hyperplasia [9],inhibited
COC1=C2C[C@@H](C)C[C@H](OC)[C@H](O)[C@@H](C)/C=C(\C)[C@H](OC(N)=O)[C@@H](OC)/C=C\C=C(/C)C(=O)NC(=CC1=O)C2=O [Geldanamycin],liver toxicity,[10],liver toxicity
CC1(C)CC(=O)c2c(C(F)(F)F)nn(-c3ccc(C(N)=O)c(N[C@H]4CC[C@H](O)CC4)c3)c2C1 [SNX-2112],"Effect on Hyperplasia, Mice 2 or Slide 2, 24 Hr. post UVR",UVR-induced hyperplasia [5],+++
same,"Effect on Hyperplasia, Mice 2 or Slide 2, 48 Hr. post UVR",UVR-induced hyperplasia [5],+++
same,effect on UVR-induced hyperplasia (Table 3),"UVR-induced hyperplasia [5]; mouse 1, 24 hr and 48 hr post-UVR",no effect
same,effect on UVR-induced hyperplasia (Table 3),"UVR-induced hyperplasia [5]; mouse 2, 24 hr and 48 hr post-UVR",positive effect
CO[C@H]1/C=C\C=C(/C)C(=O)NC2=CC(=O)C(NCCN(C)C)=C(C[C@@H](C)C[C@H](OC)[C@H](O)[C@@H](C)/C=C(\C)[C@@H]1OC(N)=O)C2=O.Cl [17DMAG],oral bioavailability,[11],excellent
same,potency against human Hsp90 relative to 17-AAG,human Hsp90,~2 times
CCNC(=O)c1cc2c(-c3cc(OCCN4CCCC4)c(Cl)cc3Cl)nc(N)nc2[nH]1 [NPVBEP800],"Effect on Hyperplasia, Mice 1 or Slide 1, 24 Hr. post UVR",UVR-induced hyperplasia [5],+++
same,"Effect on Hyperplasia, Mice 1 or Slide 1, 48 Hr. post UVR",UVR-induced hyperplasia [5],+++
same,"Effect on Hyperplasia, Mice 2 or Slide 2, 24 Hr. post UVR",UVR-induced hyperplasia [5],+++
same,"Effect on Hyperplasia, Mice 2 or Slide 2, 48 Hr. post UVR",UVR-induced hyperplasia [5],+++
same,effect on UVR-induced hyperplasia (Table 3),UVR-induced hyperplasia [5]; [14],positive effect
CCNC(=O)c1noc(-c2cc(C(C)C)c(O)cc2O)c1-c1ccc(CN2CCOCC2)cc1 [NVPAU922],effect on UVR-induced hyperplasia (Table 3),UVR-induced hyperplasia [5]; [14],slightly negative effect
